{
  "source": "paper PMC9578396",
  "about": "“Intrinsic Antibacterial Activity of Xeruborbactam In Vitro: Assessing Spectrum and Mode of Action” (Antimicrobial Agents and Chemotherapy, 2022)",
  "key": {"PBP1a": {"molecular_target": "PBP1a (Klebsiella pneumoniae, UniProt A0A0H3GZF1)", "sequence (A0A0H3GZF1 entry or part of it)": "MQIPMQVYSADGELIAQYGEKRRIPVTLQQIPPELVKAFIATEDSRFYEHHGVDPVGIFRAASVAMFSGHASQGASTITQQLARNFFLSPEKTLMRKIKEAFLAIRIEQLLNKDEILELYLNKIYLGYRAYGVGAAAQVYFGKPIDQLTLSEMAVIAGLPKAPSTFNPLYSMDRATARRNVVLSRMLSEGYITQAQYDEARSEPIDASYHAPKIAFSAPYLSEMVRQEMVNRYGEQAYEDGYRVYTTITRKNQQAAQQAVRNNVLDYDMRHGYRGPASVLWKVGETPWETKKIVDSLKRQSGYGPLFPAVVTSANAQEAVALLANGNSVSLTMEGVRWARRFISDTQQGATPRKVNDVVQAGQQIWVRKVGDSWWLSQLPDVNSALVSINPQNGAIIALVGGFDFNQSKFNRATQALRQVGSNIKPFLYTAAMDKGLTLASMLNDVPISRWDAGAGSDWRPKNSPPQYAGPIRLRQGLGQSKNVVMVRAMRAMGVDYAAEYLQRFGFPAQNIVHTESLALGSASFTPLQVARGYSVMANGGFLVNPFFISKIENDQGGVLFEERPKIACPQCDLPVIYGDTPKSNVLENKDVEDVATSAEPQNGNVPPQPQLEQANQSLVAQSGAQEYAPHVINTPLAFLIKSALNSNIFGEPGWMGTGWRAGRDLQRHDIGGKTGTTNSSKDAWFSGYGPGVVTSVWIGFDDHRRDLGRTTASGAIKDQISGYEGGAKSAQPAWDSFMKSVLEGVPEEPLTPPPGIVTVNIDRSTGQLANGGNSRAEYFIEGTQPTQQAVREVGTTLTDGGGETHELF", "parameters": "method as in PMID 29712652", "details": "read-out: IC50, PBP1a; value in parentheses; K. pneumoniae ATCC 43816; cited from earlier work"}, "[1]": {"tested_on": "Enterobacter cloacae species complex", "assay": "Broth microdilution MIC (CLSI), Enterobacter cloacae", "assay_type": "cell-based", "details": "for MIC: Enterobacter cloacae", "text": "Bacterial isolates were subjected to broth microdilution susceptibility testing, performed according to Clinical and Laboratory Standards Institute (CLSI) methods ([46]), using panels prepared in-house. Meropenem was purchased from Sandoz, and all other antibiotics were from Sigma-Aldrich. Xeruborbactam was synthesized at Qpex Biopharma, San Diego, CA. Avibactam was purchased from eNovation Chemicals LLC, Bridgewater, NJ, USA; zidebactam was from MedKoo Biosciences, Inc., Morrisville, NC, and nacubactam was from Advanced ChemBlocks, Hayward, CA. Durlobactam was synthesized at Acme Bioscience, Palo Alto, CA, USA."}, "[2]": {"tested_on": "K. pneumoniae strain KPM1026a", "assay": "Fluorescence microscopy, cellular morphology", "assay_type": "cell-based, Klebsiella pneumoniae", "details": "treated at 1× and 2× MIC, 1 to 2 h, 30°C", "protocol": "Single colonies of K. pneumoniae strain KPM1026a, A. baumannii strain ATCC 17978, and P. aeruginosa strain PAM1154 were picked from LB agar plates, inoculated in cation-adjusted Mueller-Hinton broth (CA-MHB), and incubated overnight at 30°C with rolling. Overnight cultures were diluted into fresh CA-MHB and incubated at 30°C, with rolling, until they reached an OD600 of ≈0.12 to 0.15 (equivalent to ~2 × 10^8 CFU/mL). Samples were then treated with compounds and incubated at 30°C, with rolling. After 1 or 2 h of treatment, cells were collected and stained with a dye mix containing FM4-64 (1 μg/mL), DAPI (4′,6-diamidino-2-phenylindole) (2 μg/mL), and SYTOX green (0.5 μM) (Molecular Probes, Invitrogen, or Thermo Fisher Scientific). Cells were transferred onto an agarose pad containing 1.2% agarose and 20% LB medium for microscopy. Microscopy was performed as previously described ([34])."}, "[3]": {"tested_on": "major PBPs in total membrane preparations", "assay": "Bocillin FL competition PBP binding assay, probe incubation at 30°C", "parameters": "species or system E. coli, K. pneumoniae, A. baumannii, and P. aeruginosa", "details": "concentrations up to 300 μM; fluorescent probe incubation at 30°C", "protocol": "Ten milliliters of overnight bacterial culture was inoculated in 1 L of LB medium and grown to an OD600 of 0.7 to 0.9. The cell pellet was washed once with 50 mL of solution containing 100 mM Na-phosphate at pH 7.0 and 100 mM NaCl and resuspended in 10 mL of the same buffer with one tablet of EDTA-free mini-protease inhibitor and 10 mg of lysozyme. Cell suspensions were incubated for 45 min at 37°C, and then 200 μL of DNase I was added along with MgSO4 (to a final concentration of 10 mM), followed by three cycles of freeze-thawing (10 min and 20 min, respectively). Four cycles of sonication at maximum power were performed next, each cycle lasting for 30 s with 1 min on ice between cycles. The cell suspension was centrifuged at 12,000 × g for 10 min at 4°C. The supernatant was collected and centrifuged at 100,000 × g for 45 min at 4°C. The pellet was washed three times with 10 mL of 100 mM Na-phosphate, pH 7.0, by resuspension and subsequent centrifugation at 100,000 × g for 10 min at 4°C. The pellet was finally resuspended in 1.5 mL of 100 mM Na-phosphate, pH 7.0, and passed several times through a Dounce homogenizer (tight pestle). […]\nFive microliters of total bacterial membrane preparation was mixed with 5 μL of a test compound at a desired concentration in 100 mM Na-phosphate buffer, pH 7.0. […] IC50 values were calculated with Prism software (GraphPad)."}, "[4]": {"tested_on": "strain KPM1026a of K. pneumoniae", "assay": "Minimal bactericidal concentration (MBC), K. pneumoniae", "assay_type": "cell-based", "details": "Klebsiella pneumoniae"}, "[5]": {"tested_on": "strain AB1007 of A. baumannii", "assay": "Minimal bactericidal concentration (MBC), A. baumannii", "assay_type": "cell-based", "details": "Acinetobacter baumannii"}, "[6]": {"details": "Enterobacter cloacae species complex, 45 isolates"}},
  "note": "Like-named read-outs stand apart in the source and are kept apart here.",
  "data": [
    {"smiles": "C[C@@H](O)[C@H]1C(=O)N2C(C(=O)O)=C(S[C@@H]3CN[C@H](C(=O)N(C)C)C3)[C@H](C)[C@H]12", "note": "[Meropenem]", "values": [
      {"measurement": "IC50", "setting": "PBP1a", "result": 5.2, "unit": "µM"}
    ]},
    {"smiles": "O=C(O)c1c(F)ccc2c1OB(O)[C@@H]1C[C@H]21", "note": "[Xeruborbactam]", "values": [
      {"measurement": "MIC50", "setting": "[1]; [6]", "result": 16, "unit": "µg/mL"},
      {"measurement": "MIC90", "setting": "[1]; [6]", "result": 32, "unit": "µg/mL"},
      {"measurement": "MIC range", "setting": "[1]; [6]", "result": "4 to 64", "unit": "µg/mL"},
      {"measurement": "MIC", "setting": "[1]; Enterobacter cloacae species complex isolates, read-out: highest MIC observed", "result": 64, "unit": "µg/mL"},
      {"measurement": "MIC", "setting": "[1]; clinical isolate ECL1057, OmpK35 FN, OmpK36 NF, read-out: MIC", "result": 64, "unit": "µg/mL"},
      {"measurement": "MIC", "setting": "[1]; clinical isolate ECL1079, OmpK35 NF, OmpK36 NF, read-out: MIC", "result": 64, "unit": "µg/mL"},
      {"measurement": "MIC", "setting": "[1]; clinical isolate ECL1126, OmpK35 FN, OmpK36 FN, read-out: MIC", "result": 16, "unit": "µg/mL"},
      {"measurement": "MIC", "setting": "[1]; clinical isolate ECL1131, OmpK35 NF, OmpK36 FN, read-out: MIC", "result": 16, "unit": "µg/mL"},
      {"measurement": "cellular morphology", "setting": "[2]", "result": "increased cell length relative to that of the untreated controls and bulges that developed at midcell"},
      {"measurement": "interaction with PBPs", "setting": "[3]", "result": "No detectable interactions"},
      {"measurement": "MBC", "setting": "[4]", "result": 16, "unit": "µg/mL"},
      {"measurement": "MBC", "setting": "[5]", "result": 16, "unit": "µg/mL"}
    ]}
  ]
}
